Patent US11919858B2, “Aminonapthoquinone compounds and pharmaceutical composition for blocking ubiquitination-proteasome system in diseases” (Calgent Biotechnology Co., Ltd., priority 2015, dated 2024)

How the values were obtained:
[1] = test system: MCF-7; assay: Growth inhibition assay; assay type: cell-based; conditions: Homo sapiens, MCF7; MCF-7 (Breast cancer), 48 hours
Method: (§1) Cells were seeded in 96-well plastic plates and exposed to MPT0L056 for 48 hours. Cell viability was assessed using the 3-(4,5-dimethylthiazol-2-yl)-2,5-diphenyltetrazolium bromide assay. Growth inhibition was expressed as the percentage of surviving cells in drug-treated versus DMSO-treated control cells.

[2] = test system: AsPC1; assay: Growth inhibition assay; assay type: cell-based; conditions: Homo sapiens; AsPC1 (Pancreas cancer), 48 hours
Method: as §1

[3] = test system: MOLT4; assay: Growth inhibition assay; assay type: cell-based; conditions: Homo sapiens, MOLT-4; MOLT4 (Leukemia), 48 hours
Method: as §1

[4] = test system: A431; assay: Growth inhibition assay; assay type: cell-based; conditions: Homo sapiens, A-431; A431 (Skin cancer), 48 hours
Method: as §1

[5] = test system: REH; assay: Growth inhibition assay; assay type: cell-based; conditions: Homo sapiens; REH (B cell leukemia), 48 hours
Method: as §1

[6] = test system: T98; assay: Growth inhibition assay; assay type: cell-based; conditions: Homo sapiens; T98 (Brain cancer), 48 hours
Method: as §1

[7] = test system: OVCAR4; assay: Growth inhibition assay; assay type: cell-based; conditions: Homo sapiens, OVCAR-4; OVCAR4 (Ovarian cancer), 48 hours
Method: as §1

[8] = test system: H33HJ-JA1; assay: Growth inhibition assay; assay type: cell-based; conditions: H33HJ-JA1 (T cell lymphoma), 48 hours
Method: as §1

[9] = test system: NHDF; assay: Growth inhibition assay; assay type: cell-based; conditions: Homo sapiens; NHDF (Normal cells), 48 hours
Method: as §1

[10] = test system: K562; assay: Growth inhibition assay; assay type: cell-based; conditions: Homo sapiens; K562 (Leukemia), 48 hours
Method: as §1

[11] = test system: Hepatocytes; assay: Growth inhibition assay; assay type: cell-based; conditions: Hepatocyte; Hepatocytes (Normal cells), 48 hours
Method: as §1

[12] = test system: A549; assay: Growth inhibition assay; assay type: cell-based; conditions: Homo sapiens; A549 (Lung cancer), 48 hours
Method: as §1

[13] = test system: HT-29; assay: Growth inhibition assay; assay type: cell-based; conditions: Homo sapiens; HT-29 (Colorectal cancer), 48 hours
Method: as §1

[14] = test system: BxPC3; assay: Growth inhibition assay; assay type: cell-based; conditions: Homo sapiens, BXPC-3; BxPC3 (Pancreas cancer), 48 hours
Method: as §1

[15] = test system: OVCAR3; assay: Growth inhibition assay; assay type: cell-based; conditions: Homo sapiens, OVCAR-3; OVCAR3 (Ovarian cancer), 48 hours
Method: as §1

[16] = test system: NCI-H460; assay: Growth inhibition assay; assay type: cell-based; conditions: Homo sapiens; NCI-H460 (Lung cancer), 48 hours
Method: as §1

[17] = test system: ZR-75; assay: Growth inhibition assay; assay type: cell-based; conditions: ZR75; ZR-75 (Breast cancer), 48 hours
Method: as §1

[18] = test system: PC-3; assay: Growth inhibition assay; assay type: cell-based; conditions: Homo sapiens; PC-3 (Prostate cancer), 48 hours
Method: as §1

[19] = test system: KATO III; assay: Growth inhibition assay; assay type: cell-based; conditions: Homo sapiens; KATO III (Stomach cancer), 48 hours
Method: as §1

[20] = test system: PC-6; assay: Growth inhibition assay; assay type: cell-based; conditions: Homo sapiens; PC-6 (Lung cancer), 48 hours
Method: as §1

[21] = test system: U-87 MG; assay: Growth inhibition assay; assay type: cell-based; conditions: Homo sapiens; U-87 MG (Brain cancer), 48 hours
Method: as §1

[22] = test system: HepG2; assay: Growth inhibition assay; assay type: cell-based; conditions: Homo sapiens; HepG2 (Liver cancer), 48 hours
Method: as §1

[23] = test system: Ramos; assay: Growth inhibition assay; assay type: cell-based; conditions: Homo sapiens; Ramos (B cell leukemia), 48 hours
Method: as §1

[24] = test system: SK-MEL-5; assay: Growth inhibition assay; assay type: cell-based; conditions: Homo sapiens; SK-MEL-5 (Melanoma), 48 hours
Method: as §1

[25] = test system: HUVECs; assay: Growth inhibition assay; assay type: cell-based; conditions: Homo sapiens, HUVEC; HUVECs (Normal cells), 48 hours
Method: as §1

[26] = test system: A-498; assay: Growth inhibition assay; assay type: cell-based; conditions: Homo sapiens, A498; A-498 (Kidney cancer), 48 hours
Method: as §1

[27] = test system: ACHN; assay: Growth inhibition assay; assay type: cell-based; conditions: Homo sapiens; ACHN (Kidney cancer), 48 hours
Method: as §1

[28] = test system: human A2780 ovarian adenocarcinoma; assay: Human A2780 ovarian cancer xenograft in female nude mice (TMU-A2780-e0001); assay type: in vivo
[29] = test system: IL-6 production in murine RAW264.7 macrophage cells; assay: IL-6 production in LPS-stimulated RAW264.7 macrophage cells (ELISA); assay type: cell-based; conditions: Mus musculus, RAW 264.7 cells, pretreated 1 h, LPS (25 ng/mL) 24 h
Method: Cell culture. The RAW264.7 mouse macrophage cells were purchased from the Bioresource Collection and Research Center (Hsinchu, Taiwan) and the cells cultured at 37° C. in 5% CO2/95% air in, respectively, 90% Ham's F-12 or Dulbecco's modified Eagle medium, both containing 10% heat-inactivated fetal bovine serum (FBS) (Invitrogen Life Technologies, Carlsbad, CA) and 1% penicillin/streptomycin (Biological Industries, Israel).
IL-6 Determination. To determine the effect of MPT0L056 on the production of cytokine IL-6 from LPS-stimulated cells, RAW 264.7 cells (1×10^6) were plated and pretreated in the presence or absence of MPT0L056 for 1 h, and then stimulated with LPS (25 ng/mL) for 24 h at 37° C. Supernatants were collected and the concentration of cytokines IL-6 was measured by ELISA kit.

[30] = test system: human MDA-MB-231 breast adenocarcinoma; assay: Human MDA-MB-231 breast cancer xenograft in female nude mice (TMU-MDA-MB-231-e0002)

Q: Which results are given for `O=C(Nc1ccncc1)c1ccc(CNC2=C(Cl)C(=O)c3ccccc3C2=O)cc1` [MPT0L056]?
A: GI50 [1]: 0.9 µM; GI50 [2]: 4.6 µM; GI50 [3]: 4 µM; GI50 [4]: 1.2 µM; GI50 [5]: 2.8 µM; GI50 [6]: 5.7 µM; GI50 [7]: 1.4 µM; GI50 [8]: 1.8 µM; GI50 [9]: 6.3 µM; GI50 [10]: 1.7 µM; GI50 [11]: 30 µM; GI50 [12]: > 5 µM; GI50 [13]: 3.8 µM; GI50 [14]: 1.2 µM; GI50 [15]: 1.9 µM; GI50 [16]: 2.9 µM; GI50 [17]: > 5 µM; GI50 [18]: 2.5 µM; GI50 [19]: 2.4 µM; GI50 [20]: 1.8 µM; GI50 [21]: 2.5 µM; GI50 [22]: 3.6 µM; GI50 [23]: 0.89 µM; GI50 [24]: 0.21 µM; GI50 [25]: 16 µM; GI50 [26]: 3.5 µM; GI50 [27]: 2.7 µM; antitumor activity ([28]; MPT0L056 50 mg/kg (so in the source) p.o. once every day to the end): but not 50 mg/kg (P>0.05) produced significant antitumor activity; antitumor activity ([28]; MPT0L056 200 mg/kg p.o. once every day to the end): produced significant antitumor activity; body weight change ([28]; MPT0L056 100 and 200 mg/kg, FIG. 8): did not significantly affect the animal body weight; IC50 [29]: 1.21 µM; tumor growth delay ([30]; MPT0L056 25 mg/kg p.o. once every day for ten days): did not significantly express tumor growth delay; antitumor activity ([30]; MPT0L056 50 mg/kg p.o. once every day for ten days): produced significant antitumor activity; antitumor activity ([30]; MPT0L056 100 mg/kg p.o. once every day for ten days): produced significant antitumor activity; body weight change ([30]; MPT0L056 100, 50 and 25 mg/kg, FIG. 6): did not significantly affect the animal body weight
